This note sets out measurements from ChEMBL document CHEMBL1127154, “Azido-functionalized thiourea analogues acting as efficient photoaffinity probes for the urea channel” (1993).

Experiment [1] has as its system frog. The experiment in a line: Concentration in urinary bladder of female frog. It counts as functional, tissue-based.
Experiment [2] can be described thus: Compound was tested for its ability to inhibit the urea facilitated transport in the urinary bladder of female frog, activity expressed as percent inhibition. It counts as functional.
The nature of experiment [3]: Compound was tested for its ability to inhibit the urea facilitated transport in the urinary bladder of female frog after illumination, activity expressed as irreversibility of illumination. It counts as functional.
For experiment [4], the system named is frog. The experiment can be described thus: Concentration in urinary bladder of female frog; very low solubility. It counts as functional, tissue-based.

One may read the Inhibition as the percentage by which the read-out fell short of the control. Higher therefore signals strong suppression. With `C/N=C(\S)Nc1nc2cc(N=[N+]=[N-])ccc2[nH]1`, the Concentration in the experiment on frog [1] was found to be 500 µM. In experiment [2], the Inhibition stood at 29%. In experiment [3], the Irreversibility is given as 100%.
In turn, `[N-]=[N+]=Nc1ccc(/N=C(/N)S)cc1` came in with a Concentration in the experiment with frog [1] of 500 µM. In addition, the Inhibition in experiment [2] is listed as 25%. Moreover, the Irreversibility in experiment [3] is given as 100%.
Regarding `[N-]=[N+]=Nc1ccc(NC(=S)Nc2ccc(Cl)c(Cl)c2)cc1`, in the experiment on frog [4], the Concentration entry is on record as “very low solubility”.
In the experiment on frog [1], `C/N=C(\S)Nc1ccc(Cl)c(N=[N+]=[N-])c1` showed a Concentration of 31.6 µM. The Inhibition in experiment [2] was 50%. The Irreversibility in experiment [3] is on record as 100%.
`[N-]=[N+]=Nc1cc(/N=C(/N)S)ccc1Cl` displayed a Concentration with frog [1] of 60.3 µM. The molecule also came in with an Inhibition in experiment [2] of 50%. This molecule also registered an Irreversibility in experiment [3] of 100%.
